# In patent US6713043B2 (priority 1996, dated 2004):
# “Also recorded” adds a separate entry of the source.
# Tests used:
# F4b in human macrophages = format: cell-based, Legionella pneumophila
# HL-60 cells = conditions: human
# [1] = tested on: L. pneumophila infected HL-60 cells; format: cell-based, human
# [2] = tested on: L. pneumophila in mouse J774 macrophages; format: cell-based, Legionella pneumophila
# F4b [3] = format: cell-based, Legionella pneumophila
# [4] = tested on: L. pneumophila in human macrophages; format: cell-based, Legionella pneumophila
# L. pneumophila [5] = format: cell-based, Legionella pneumophila
# L. pneumophila [6] = format: cell-based, Legionella pneumophila; remark: listed apart in the source
# [7] = tested on: L. pneumophila in human monocytes; format: cell-based, Legionella pneumophila
# F4b in HL-60 cells = format: cell-based, Legionella pneumophila
# L. pneumophila [8] = assay: microbe, parasite or virus in culture; format: cell-based, Legionella pneumophila; conditions: for MIC: Legionella pneumophila, 48 h, read-out: MIC (minimum concentration at which no growth occurred)
# [9] = in vivo; cited from earlier work
# P. aeruginosa = format: cell-based, Psuedomonas aeruginosa
# [10] = tested on: L. pneumophila in HL-60 cells; format: cell-based, Legionella pneumophila
# F4b [11] = format: cell-based, Legionella pneumophila; remark: listed apart in the source
# L. pneumophila [12] = format: cell-based, Legionella pneumophila; remark: listed apart in the source
# wild type L. pneumophila = format: cell-based, Legionella pneumophila
# F4b [13] = format: cell-based, Legionella pneumophila; remark: listed apart in the source
smiles,measurement,setting,value
"Cc1ccc(C)c(OCCCC(C)(C)C(=O)O)c1 [GFZ, Gemfibrozil]",inhibition of intracellular growth (CFU),F4b in human macrophages,one log
same,effect on HL-60 cell viability,HL-60 cells,did not affect HL-60 cell viability
same,viability of L. pneumophila infected HL-60 cells (MTT reduction),[1],increased viability
same,inhibition of intracellular growth (CFU),[2],one log; also recorded: partially inhibited
same,effect on fatty acid profile,F4b [3],did not affect the fatty acid profile
same,inhibition of intracellular growth (CFU),[4],partially inhibited
same,effect on fatty acid profile,L. pneumophila [5],decreased peak areas for several typical L. pneumophila fatty acids
same,inclusion accumulation (EM),L. pneumophila [6],accumulated granules
same,inhibition of intracellular growth (CFU),[7],one log; also recorded: partially inhibited
same,inhibition of intracellular growth (CFU),F4b in HL-60 cells,one log
same,growth in AYE broth in presence of GFZ,L. pneumophila [8],inhibited L. pneumophila growth
same,MIC,L. pneumophila [8],10 µg/mL
same,concentration of gemfibrozil used in humans treated for hyperlipidemia,[9],15000 to 30000 ng/mL
same,susceptibility to GFZ,P. aeruginosa,not susceptible
same,inhibition of intracellular growth (CFU),[10],partially inhibited; also recorded: three logs
same,inclusion accumulation (EM),F4b [11],no apparent difference in the number or size of inclusions
same,GFZ concentration at which no growth was seen on the CYE plates,L. pneumophila [12],400 µg/mL
same,bacteriocidal or bacteriostatic,L. pneumophila [12],bacteriostatic
"CCCN(CCC)S(=O)(=O)c1ccc(C(=O)O)cc1 [Probenecid, probenecid]",MIC,L. pneumophila [8],160 µg/mL
CC(C)(Oc1ccc(Cl)cc1)C(=O)O [clofibric acid],MIC,L. pneumophila [8],125 µg/mL
CCc1cc(C(N)=S)ccn1 [ethionamide],sensitivity of wild type L. pneumophila relative to F4b (zone of inhibition),wild type L. pneumophila,twice as sensitive
NNC(=O)c1ccncc1 [isoniazid],sensitivity (zone of inhibition),F4b [13],sensitive
same,sensitivity (zone of inhibition),wild type L. pneumophila,no sensitivity
